Our source for the Kd values is patent US20240158446A1, “CYCLIC COMPOUND HAVING SELECTIVE INHIBITORY ACTION ON KRAS OVER HRAS AND NRAS” (CHUGAI SEIYAKU KABUSHIKI KAISHA, priority 2021, published 2024).

The assay has as its target GDP-bound KRAS wild-type protein (Homo sapiens, UniProt P01116). Put plainly: Binding to KRAS by surface plasmon resonance (SPR), Single Cycle Kinetics. To be noted: GDP-bound KRAS wild-type protein, read-out: KRAS KD. On the technique in general: In SPR one partner is held on a chip, and binding of the other changes the refractive index at the surface.
[1] abbreviates: SPR Single Cycle Kinetics, 1:1 binding model.

Read-outs that look alike come from different tables or passages of the source. Where a SMILES comes first, the peptide text is derived from it. Bridges are numbered along the chain shown (N, C = ends). [ ]: non-standard residue; d: D form. The star is where a group is joined. hPhe(3-Cl-4-CF3) = N[C@@H](CCc1ccc(C(F)(F)F)c(Cl)c1)C(=O)O; NPrPhe(4-CF3) = CCCN[C@@H](Cc1ccc(C(F)(F)F)cc1)C(=O)O; NMeGly(cPent) = CN[C@H](C(=O)O)C1CCCC1; Pro(4S-Me) = C[C@@H]1CN[C@H](C(=O)O)C1; NMeD = CN[C@@H](CC(=O)O)C(=O)O; NMeL = CN[C@@H](CC(C)C)C(=O)O; Morpholide = C1CN(*)CCO1; NMeA = CN[C@@H](C)C(=O)O; Ac5c = NC1(C(=O)O)CCCC1; Aze = O=C(O)[C@@H]1CCN1; NEtG = CCNCC(=O)O; Sar = CNCC(=O)O

Sequence of GDP-bound KRAS wild-type protein (P01116 whole entry): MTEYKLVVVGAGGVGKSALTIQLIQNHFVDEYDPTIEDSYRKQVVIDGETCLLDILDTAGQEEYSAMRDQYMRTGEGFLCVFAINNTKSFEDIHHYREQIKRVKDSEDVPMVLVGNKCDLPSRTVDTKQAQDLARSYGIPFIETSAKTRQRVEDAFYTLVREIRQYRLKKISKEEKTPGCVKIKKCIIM

`CCCN1C(=O)CN(C)C(=O)CN(CC)C(=O)[C@H]([C@@H](C)CC)NC(=O)[C@H](CC(C)C)N(C)C(=O)C[C@@H](C(=O)N2CCOCC2)N(C)C(=O)[C@H](C2CCCC2)N(C)C(=O)C2(CCCC2)NC(=O)[C@@H]2C[C@H](C)CN2C(=O)[C@H](CCc2ccc(C(F)(F)F)c(Cl)c2)NC(=O)CN(C)C(=O)[C@@H]1Cc1ccc(C(F)(F)F)cc1` [PP0451] ([NMeL]I[NEtG][Sar][NPrPhe(4-CF3)][Sar][hPhe(3-Cl-4-CF3)][Pro(4S-Me)][Ac5c][NMeGly(cPent)][NMeD]-Morpholide; lactam N-11): under setting [1], the Kd was 0.75 nM. For `CCCN1C(=O)[C@@H]2CCN2C(=O)[C@H](C)N(C)C(=O)[C@H]([C@@H](C)CC)NC(=O)[C@H](CC(C)C)N(C)C(=O)C[C@@H](C(=O)N2CCOCC2)N(C)C(=O)[C@H](C2CCCC2)N(C)C(=O)C2(CCCC2)NC(=O)[C@@H]2C[C@H](C)CN2C(=O)[C@H](CCc2ccc(C(F)(F)F)c(Cl)c2)NC(=O)CN(C)C(=O)[C@@H]1Cc1ccc(C(F)(F)F)cc1` [PP0455] ([NMeL]I[NMeA][Aze][NPrPhe(4-CF3)][Sar][hPhe(3-Cl-4-CF3)][Pro(4S-Me)][Ac5c][NMeGly(cPent)][NMeD]-Morpholide; lactam N-11), the Kd under setting [1] worked out at 0.18 nM.

As for `CC[C@H](C)[C@@H]1NC(=O)[C@H](CC(C)C)N(C)C(=O)C[C@@H](C(=O)N2CCOCC2)N(C)C(=O)[C@H](C2CCCC2)NC(=O)C2(CCCC2)NC(=O)[C@@H]2CCCN2C(=O)[C@H](CCc2cc(F)c(C(F)(F)F)c(F)c2)NC(=O)CN(C)C(=O)[C@H](Cc2ccc(C(F)(F)F)cc2)N2CCCCC[C@@H](C2=O)N(C)C(=O)CN(C)C1=O` [PP0478], the Kd under setting [1] is 400 nM. `CCO[C@@H]1C[C@H]2C(=O)NC3(CCC3)C(=O)N(C)[C@@H](C(CC)CC)C(=O)N(C)[C@H](C)CC(=O)N(C)[C@@H](CC3CCCC3)C(=O)N[C@@H]([C@@H](C)CC)C(=O)N(C)CC(=O)N(C)[C@H]3C/C=C\CCN(C3=O)[C@@H](Cc3ccc(F)cc3)C(=O)N(C)CC(=O)N[C@@H](CCc3cc(F)c(C(F)(F)F)c(F)c3)C(=O)N2C1` [PP1523]: the Kd (SPR, Single Cycle Kinetics, 1:1 binding model) is 4.1 nM. In the case of `CCO[C@@H]1C[C@H]2C(=O)NC3(CC(C)(C)C3)C(=O)N(C)[C@@H](C(CC)CC)C(=O)N(C)[C@H](C(=O)N3CCCCC3)CC(=O)N(C)[C@H]3CCC/C=C/c4ccc(cc4)C[C@@H](C(=O)N(C)CC(=O)N[C@@H](CCc4cc(F)c(C(F)(F)F)c(F)c4)C(=O)N2C1)N1CC/C=C\C[C@@H](C1=O)N(C)C(=O)CN(C)C(=O)[C@H]([C@@H](C)CC)NC3=O` [PP2952], the dissociation constant (Kd) under setting [1] is 0.79 nM. Regarding `CCO[C@@H]1C[C@H]2C(=O)NC3(CC(C)(C)C3)C(=O)N(C)[C@@H](C(CC)CC)C(=O)N(C)[C@H](C(=O)N(C)C)CC(=O)N(C)[C@H]3CCCC/C=C/c4ccc(cc4)C[C@@H](C(=O)N(C)CC(=O)N[C@@H](CCc4cc(F)c(C(F)(F)F)c(F)c4)C(=O)N2C1)N1CC/C=C\C[C@@H](C1=O)N(C)C(=O)CN(C)C(=O)[C@H]([C@@H](C)CC)NC3=O` [PP3044], under “SPR, Single Cycle Kinetics”, the Kd was found to be 0.052 nM.

`CCO[C@@H]1C[C@H]2C(=O)NC3(CCC3)C(=O)N(C)[C@@H](C3CCCC3)C(=O)N(C)[C@H](C(=O)N3CCCC3)CC(=O)N(C)[C@H]3CCCCC/C=C/c4ccc(cc4)C[C@@H](C(=O)N(C)CC(=O)N[C@@H](CCc4ccc(Cl)c(Cl)c4)C(=O)N2C1)N1CC/C=C\C[C@@H](C1=O)N(C)C(=O)CN(C)C(=O)[C@H]([C@@H](C)CC)NC3=O` [PP3049]: the dissociation constant (Kd) (SPR, Single Cycle Kinetics) was 0.2 nM. Same read-out and setting: under `CCO[C@@H]1C[C@H]2C(=O)NC3(CCC3)C(=O)N(C)[C@@H](C(CC)CC)C(=O)N(C)[C@H](C(=O)N3CCCCC3)CC(=O)N(C)[C@H]3CCCCC/C=C/c4ccc(cc4)C[C@@H](C(=O)N(C)CC(=O)N[C@@H](CCc4ccc(Cl)c(Cl)c4)C(=O)N2C1)N1CC/C=C\C[C@@H](C1=O)N(C)C(=O)CN(C)C(=O)[C@H]([C@@H](C)CC)NC3=O` [PP3051] stands 0.75 nM.

One may read the Kd as the free concentration of one partner at which half of the binding sites on the other are occupied at equilibrium, for simple one-to-one binding.
